Test: Comparative stability: HPLC assay of samples stored in open vials
Format: physicochemical
Details: for assay after storage: open vial; for Initial assay: before storage, HPLC assay
Protocol: The assay was determined by use of UV-HPLC (e.g., Shimadzu Nexera X2 System) with an autosampler temperature set at 25° C. and a column temperature set at 50° C. Typically 1 μL of sample is injected and separation is obtained by use of a Phenomenex Gemini 5.0 μm 110 Å, 50×2.0 mm column using a flow of 1.5 mL/min. Samples are typically prepared by solubilization in acetonitrile/carbonate buffer pH10 1/1. A gradient method is used with solvent A consisting of Trizma base buffer 50 mM pH 9 (adjusted with HCl) and solvent B consisting of Acetonitrile+5% (v/v) Trizma base buffer 50 mM pH 9 (adjusted with HCl). Following gradient is typically used: […]

| SMILES | assay after storage (40° C., 7 days, 11% RH) | assay after storage (40° C., 7 days, 75% RH) | assay after storage (60° C., 7 days, 11% RH) | assay after storage (60° C., 7 days, 75% RH) | assay after storage (80° C., 3 days, 11% RH) | assay after storage (80° C., 3 days, 75% RH) | Initial assay | chemical stability in comparison to aprocitentan free acid form (in crystalline Form A) (under certain experimental conditions of Table 5) |
| --- | --- | --- | --- | --- | --- | --- | --- | --- |
| NS(=O)(=O)Nc1ncnc(OCCOc2ncc(Br)cn2)c1-c1ccc(Br)cc1 [{5-(4-bromo-phenyl)-6-[2-(5-bromo-pyrimidin-2-yloxy)-ethoxy]-pyrimidin-4-yl}-sulfamide, reference compound] | 97.2% | 91.8% | 96.7% | 93.7% | 89.7% | 0.3% | 96.9% |  |
| NS(=O)(=O)[N-]c1ncnc(OCCOc2ncc(Br)cn2)c1-c1ccc(Br)cc1.[Na+] [COMPOUND in crystalline form 1, sodium (5-(4-bromophenyl)-6-(2-((5-bromopyrimidin-2-yl)oxy)ethoxy)pyrimidin-4-yl)(sulfamoyl)amide] | 104.4% | 104.0% | 104.5% | 102.6% | 103.4% | 72.4% | 104.1% | superior chemical stability |

Source: US20250340520A1, “CRYSTALLINE FORMS OF SODIUM (5-(4-BROMOPHENYL)-6-(2-((5-BROMOPYRIMIDIN-2-YL)OXY)ETHOXY)PYRIMIDIN-4-YL)(SULFAMOYL)AMIDE” (IDORSIA PHARMACEUTICALS LTD, priority 2022, published 2025)
